{"source": "patent US20050180954A1", "about": "“Drug for treating bone disorders” (priority 1995, published 2005)", "format_in_all_cases": "cell-based, mouse", "key": {"MC3T3-E1 cells [1]": {"tested_on": "MC3T3-E1 cells", "assay": "Mineralization of murine osteoblasts, Von Kossa stain (in vitro single administration)", "settings": "Day 14", "procedure": "As the parameters for evaluation of differentiation ability, alkaline phosphatase (ALPase) and mineralization were employed. Detection of alkaline phosphatase which is a marker of differentiation of osteoblasts was carried out on Day 8 from the beginning of the culturing by staining method. Evaluation of mineralization was carried out as follows. That is, MC3T3-E1 cells were placed in each well of 24-well plates in an amount of 50,000 cells/ml (10 times in the case of anti-cell test in Example 3). On Day 4, after confirming that the cells sufficiently reached confluency, the medium was discarded and fresh α-MEM containing 10% JCS, 50 μg/ml of L-ascorbic acid and 10 mM β-glycerophosphate was added in an amount of 0.9 ml/well, followed by adding medium containing varying concentration of IFN. Four days later, the medium was replaced with IFN-free medium, and the medium was replaced with IFN-free medium every 4 days. On Day 14, Von Kossa stain was performed to visualize the calcified foci. Expression of alkaline phosphatase activity which is a differentiation marker is an indispensable step to the subsequent mineralization."}, "[2]": {"tested_on": "osteoclast like cells from bone marrow cells of mice of ddy strain", "assay": "Formation of osteoclast like cells from bone marrow cells of mice of ddy strain", "procedure": "Bone marrow cells were prepared in accordance with the method by Takahashi et al (Takahashi, N. et al., Endocrinology, 122, 1373, 1988). Male mice of ddy strain of 7 weeks old were exanguinated to death under ether anesthesia and the femur and the tibia of hind legs were collected from each mouse. The connective tissues on the surfaces of the bones were carefully removed, and both ends of each bone were cut off with scissors. The bone marrow cells were suspended in α-Minimum Essential Medium (α-MEM, Nissui Pharmaceuticals Co.) containing 10% pre-colostrum new born calf serum (Mitsubishi Chemical, hereinafter referred to as “JCS” for short) and the suspension was flushed out through a 25 G needle attached to a syringe to collect the suspension in a centrifugal tube. The collected suspension was washed by centrifugation in the same medium at 2000 rpm at 4° C. for 5 minutes. The precipitated cells were dispersed in the above-mentioned medium and the washing by centrifugation was repeated twice, thereby preparing bone marrow cells. Murine IFN-α (hereinafter referred to as “MuIFNα” for short), Lot. B13010, 106 units/ml/vial (Calbiochem-Novabiochem International, San Diego, Calif.), murine IFN-β (hereinafter referred to as “MuIFNβ” for short), Lot M-0034, 10 units/ml/vial (Toray Industries, Inc.) and murine IFNγ (hereinafter referred to as “MuIFNγ” for short), Lot 254F3, 2.06×10^6 units/ml (Genentech, Calif.) were respectively dissolved in 10% JCS-containing α-MEM (Nissui Pharmaceuticals Co.) to the desired concentrations. Active vitamin D3 ([…], Wako Pure Chemical Industries, Ltd., hereinafter referred to as “Vit D3” for short) was dissolved in argon-saturated ethanol, and the obtained solution was diluted so as to attain the final ethanol concentration of 0.1% in all of the culture systems.\n(§1) The number of viable bone marrow cells was counted using tripam blue dye exclusion test and the bone marrow cells were diluted with α-MEM containing 10% JCS, 10^−8M Vit D3, 10^−7 M dexamethasone to a population density of 1.5×10^6 cells/ml, followed by placing the resulting suspension in each well in 24-well plates in an amount of 0.45 ml/well. To each well, 50 μl of the medium containing varying concentration of IFN was added to make the volume to 0.5 ml/well and culturing was begun. At every three days, 0.4 ml of the culture medium was removed from each well and 0.4 ml of fresh medium (the above-mentioned medium containing the respective concentration of IFN) was added. On Day 8 from the beginning of the culturing, the medium was removed and the cells were fixed with mixed solution of ethyl alcohol and diethyl ether (1:1) and the cells were stained with tartrate resistant acid phosphatase (TRAP), followed by counting TRAP positive multinuclear cells with a phase contrast microscope. […] The inhibition effect of IFNγ was stronger than that of IFNβ. That is, the inhibition concentration IC50 of IFNγ was not more than 0.1 units/ml, and that of IFNβ was 0.2 units/ml.\nThe effects of the three murine IFNs, that is, MuIFNβ, γ and α in terms of abilities to inhibit formation of osteoclast like cells from bone marrow cells in mice of ddy strain were compared. The test was carried out as in Example 1. All of the murine IFNs inhibited the formation of osteoclast like cells, and the effect was strong in the order of γ, β and α. […] Thus, the activity of IFNα to inhibit formation of osteoclasts was about 1/20 of that of IFNβ and about not more than 1/100 of that of IFNγ."}, "[3]": {"tested_on": "osteoclast like cells from bone marrow cells of mice of C 57 BL/6 strain", "assay": "Formation of osteoclast like cells from bone marrow cells of mice of C 57 BL/6 strain", "settings": "Example 2, C 57 BL/6 strain bone marrow cells", "procedure": "as §1\nIn place of mice of ddy strain, male mice of C 57 BL/6 of 7 weeks old were used. The mice were exanguinated to death under ether anesthesia and the femur and the tibia of hind legs were collected from each mouse. The connective tissues on the surfaces of the bones were carefully removed, and both ends of each bone were cut off with scissors. The bone marrow cells were suspended in α-MEM containing 10% JCS and the suspension was flushed out through a 25 G needle attached to a syringe to collect the suspension in a centrifugal tube. The collected suspension was washed by centrifugation in the same medium at 2000 rpm at 4° C. for 5 minutes. The precipitated cells were dispersed in the above-mentioned medium and the washing by centrifugation was repeated twice. Formation of osteoclast like cells was measured by the same method as in Example 1."}, "MC3T3-E1 cells [4]": {"tested_on": "MC3T3-E1 cells", "assay": "Proliferation of murine osteoblastic cells MC3T3-E1 (in vitro single administration)", "procedure": "Murine osteoblast like cells MC3T3-E1 originated from C 57 BL/6 mouse (Kodama et al., Jap. J. Oral Biol., 23, 899, 1982) were washed with PBS(−) and the cells were dissociated by incubation in PBS(−) containing 0.1% pronase (Actinase E, Kaken Pharmaceuticals Co.), followed by dispersing the cells in α-MEM containing 10% JCS and 50 μg/ml of L-ascorbic acid (ASA). The ability to promote proliferation of cells was evaluated as follows. That is, MC3T3-E1 cells were placed in each well in 24-well plates (Corning) in an amount of 5000 cells/well. Then each IFN dilution was added to each well in an amount of 0.1 ml/well, and the culturing was begun. On Day 2, the medium was removed and the each IFN dilution was added in an amount of 0.5 ml/well (total amount of liquid: 0.5 ml/well). On Day 6, the medium was removed and the cells were washed with PBS(−) and a mixed enzyme solution of 0.1% pronase/0.1% collagenase was added to each well in an amount of 200 μl/well, followed by allowing to react at 37° C. for 15 minutes. Then α-MEM containing 10% fetal calf serum (Gibco, hereinafter referred to as “FCS” for short) was added in an amount of 300 μl/well to disperse the cells therein and the number of the cells was counted with a Coulter counter."}, "MC3T3-E1 cells [5]": {"tested_on": "MC3T3-E1 cells", "assay": "Quantification of calcium in calcified foci of MC3T3-E1", "settings": "MC3T3-E1, Day 14", "procedure": "MC3T3-E1 cells were placed in each well in 24-well plates in an amount of 50,000 cells/well and cultured to confluency. The medium was removed and fresh α-MEM containing 10% JCS, 50 μg/ml of L-ascorbic acid and 10 mM β-glycerophosphate was added in an amount of 0.9 ml/well, followed by adding 0.1 ml/well of medium containing varying concentration of IFN. The medium was replaced with IFN-free medium every 4 days. On Day 14, the medium was removed and the cells were lightly washed with Hank's solution. Anhydrous ethanol was added in an amount of 1 ml/well and fixation was carried out at room temperature for 15 minuets. Then the anhydrous ethanol was replaced with fresh anhydrous ethanol in an amount of 1 ml/well and 5 minutes later, each well was dried in the air. Then 1N hydrochloric acid was added in an amount of 1 ml/well and extraction was carried out at room temperature for 30 minutes. The total contents of each well were transferred to an Eppendorf tube and centrifuged at 1800×g at 4° C. for 10 minutes The amount of calcium in the supernatant was measured by Calcium C Test Wako and the amount of inorganic phosphorus in the supernatant was measured by Phospha B Test Wako. […] The IC50 value was as low as about 10 units/ml (FIG. 5)."}}, "data": [{"substance": "MuIFNγ: murine interferon γ, standard product Lot 254F3, provided by Genentech", "values": [{"measurement": "concentration at which the inhibition effect on mineralization was expressed", "setting": "MC3T3-E1 cells [1]", "value": 10, "unit": "units/ml"}, {"measurement": "influence on mineralization (calcified foci, Von Kossa stain)", "setting": "MC3T3-E1 cells [1]", "value": "strong and dose dependent inhibition action on mineralization"}, {"measurement": "IC50 value of inhibition of mineralization", "setting": "MC3T3-E1 cells [1]; Von Kossa", "value": "3-4 units/ml"}, {"measurement": "inhibition of formation of osteoclast like cells", "setting": "[2]; Example 1, Day 8, TRAP positive multinuclear cells", "value": "strongly inhibited formation of osteoclast like cells"}, {"measurement": "inhibition concentration IC50 of formation of osteoclast like cells", "setting": "[2]; Example 1, Vit D3 + dexamethasone, Day 8, TRAP positive multinuclear cells", "value": "not more than 0.1 units/ml"}, {"measurement": "IC50 of inhibition of formation of osteoclast like cells", "setting": "[2]; Example 8 comparison of three murine IFNs", "value": "not more than 0.1 units/ml"}, {"measurement": "inhibition of formation of osteoclast like cells", "setting": "[3]", "value": "strongly inhibited formation of osteoclast like cells"}, {"measurement": "IC50 of formation inhibition of osteoclast like cells", "setting": "[3]; Day 8", "value": 1.5, "unit": "units/ml"}, {"measurement": "inhibition of proliferation of MC3T3-E1 cells", "setting": "MC3T3-E1 cells [4]; 10,000 units/ml, cell count on Day 6", "value": "about 30%"}, {"measurement": "dose from which slight inhibition of proliferation was observed", "setting": "MC3T3-E1 cells [4]; MC3T3-E1, Day 6", "value": 1, "unit": "unit/ml"}, {"measurement": "calcium deposition smaller than the control", "setting": "MC3T3-E1 cells [5]; 1000 units/ml", "value": 70, "unit": "%"}, {"measurement": "IC50 value of inhibition of calcium deposition", "setting": "MC3T3-E1 cells [5]", "value": "about 10 units/ml"}]}]}
